Read-outs that look alike come from different tables or passages of the source.
Legend:
Type in all cases: cell-based
HeLa = assay: SRB colorimetric cell growth inhibition assay, HeLa; conditions: Homo sapiens, HeLa; for CC50: read-out: LC50 HELA, HELA, LC=cell killing (cytotoxic effect); for IC (TGI): read-out: TGI HELA; for GI50: GI=growth inhibition, read-out: GI50 HELA
Summary of the method: (§1)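 Growth inhibition (GI), cytostatic total growth inhibition (TGI) and cytotoxic cell-kill (LC) parameters were calculated from SRB-stained cultures held under constant compound exposure, triplicates averaged.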

PANC-1 = assay: SRB colorimetric cell growth inhibition assay, PANC-1; conditions: Homo sapiens; for GI50 / IC (TGI): PANC-1, PANC-1; for GI50: GI=growth inhibition, read-out: GI50 PANC-1; for IC (TGI): TGI=total growth inhibition (cytostatic effect), read-out: TGI PANC-1; for CC50: PANC-1, read-out: LC50 PANC-1, PANC-1, LC=cell killing (cytotoxic effect)
Summary of the method: as §1

HeLa-APL = assay: SRB colorimetric cell growth inhibition assay, HeLa-APL (aplidine resistant); conditions: Homo sapiens; for GI50: read-out: GI50 HELA-APL; for CC50: read-out: LC50 HELA-APL, HELA-APL, LC=cell killing (cytotoxic effect); for IC (TGI): read-out: TGI HELA-APL
Summary of the method: as §1

LoVo-Dox = assay: SRB colorimetric cell growth inhibition assay, LoVo-Dox (MDR)
Summary of the method: as §1

IGROV-ET = assay: SRB colorimetric cell growth inhibition assay, IGROV-ET (ET-743 resistant); conditions: Homo sapiens; for GI50 / IC (TGI): IGROV-ET; for GI50: GI=growth inhibition, read-out: GI50 IGROV-ET; for IC (TGI): TGI=total growth inhibition (cytostatic effect), read-out: TGI IGROV-ET; for CC50: read-out: LC50 IGROV-ET, IGROV-ET, LC=cell killing (cytotoxic effect)
Summary of the method: as §1

K-562 = assay: SRB colorimetric cell growth inhibition assay, K-562; conditions: Homo sapiens; for GI50 / IC (TGI): K562, K-562; for GI50: GI=growth inhibition, read-out: GI50 K-562; for IC (TGI): TGI=total growth inhibition (cytostatic effect), read-out: TGI K-562; for CC50: K562, read-out: LC50 K-562, K-562, LC=cell killing (cytotoxic effect)
Summary of the method: as §1

HT-29 = assay: SRB colorimetric cell growth inhibition assay, HT-29; conditions: Homo sapiens; for GI50 / IC (TGI): HT-29, HT-29; for GI50: GI=growth inhibition, read-out: GI50 HT-29; for IC (TGI): TGI=total growth inhibition (cytostatic effect), read-out: TGI HT-29; for CC50: HT-29, read-out: LC50 HT-29, HT-29, LC=cell killing (cytotoxic effect)
Summary of the method: as §1

LoVo = assay: SRB colorimetric cell growth inhibition assay, LoVo; conditions: Homo sapiens, LoVo; for CC50: read-out: LC50 LOVO, LOVO, LC=cell killing (cytotoxic effect); for GI50: GI=growth inhibition, read-out: GI50 LOVO; for IC (TGI): TGI=total growth inhibition (cytostatic effect), read-out: TGI LOVO
Summary of the method: as §1

A-549 = assay: SRB colorimetric cell growth inhibition assay, A-549; conditions: Homo sapiens; for GI50 / IC (TGI): A549, A-549; for GI50: GI=growth inhibition, read-out: GI50 A-549; for IC (TGI): TGI=total growth inhibition (cytostatic effect), read-out: TGI A-549; for CC50: A549, read-out: LC50 A-549, A-549, LC=cell killing (cytotoxic effect)
Summary of the method: as §1

SK-BR-3 = assay: SRB colorimetric cell growth inhibition assay, SK-BR-3; conditions: Homo sapiens; for GI50 / IC (TGI): SK-BR-3, SK-BR-3; for GI50: GI=growth inhibition, read-out: GI50 SK-BR-3; for IC (TGI): TGI=total growth inhibition (cytostatic effect), read-out: TGI SK-BR-3; for CC50: SK-BR-3, read-out: LC50 SK-BR-3, SK-BR-3, LC=cell killing (cytotoxic effect)
Summary of the method: as §1

DU-145 = assay: SRB colorimetric cell growth inhibition assay, DU-145; conditions: Homo sapiens; for GI50 / IC (TGI): DU-145, DU-145; for GI50: GI=growth inhibition, read-out: GI50 DU-145; for IC (TGI): TGI=total growth inhibition (cytostatic effect), read-out: TGI DU-145; for CC50: DU-145, read-out: LC50 DU-145, DU-145, LC=cell killing (cytotoxic effect)
Summary of the method: as §1

IGROV = assay: SRB colorimetric cell growth inhibition assay, IGROV; conditions: Homo sapiens, IGROV; for CC50: read-out: LC50 IGROV, IGROV, LC=cell killing (cytotoxic effect); for GI50: GI=growth inhibition, read-out: GI50 IGROV; for IC (TGI): TGI=total growth inhibition (cytostatic effect), read-out: TGI IGROV
Summary of the method: as §1

LNCaP = assay: SRB colorimetric cell growth inhibition assay, LNCaP; conditions: Homo sapiens, LNCaP; for GI50 / IC (TGI): LN-caP; for GI50: GI=growth inhibition, read-out: GI50 LN-caP; for IC (TGI): TGI=total growth inhibition (cytostatic effect), read-out: TGI LN-caP; for CC50: read-out: LC50 LN-caP, LN-caP, LC=cell killing (cytotoxic effect)
Summary of the method: as §1

SK-MEL-28 = assay: SRB colorimetric cell growth inhibition assay, SK-MEL-28; conditions: Homo sapiens; for GI50 / IC (TGI): SK-MEL-28, MEL-28; for GI50: GI=growth inhibition, read-out: GI50 MEL-28; for IC (TGI): TGI=total growth inhibition (cytostatic effect), read-out: TGI MEL-28; for CC50: SK-MEL-28, read-out: LC50 MEL-28, MEL-28, LC=cell killing (cytotoxic effect)
Summary of the method: as §1

[1] = Homo sapiens, LOVO-DOX; GI=growth inhibition; read-out: GI50 LOVO-DOX
[2] = Homo sapiens, read-out: LC50 LOVO-DOX, LOVO-DOX; LC=cell killing (cytotoxic effect)

Compound: COc1cc(-c2c3n(c4c(=O)oc5cc(OC(=O)[C@@H](N)CO)c(OC)cc5c24)CCc2c-3cc(OC)c(OC)c2OC(=O)[C@@H](N)CO)ccc1OC(=O)[C@@H](N)CO [Compound 59]
- CC50 (HeLa): 6.44 µM
- IC (TGI) (HeLa): 2.98 µM
- GI50 (HeLa): 1.37 µM
- GI50 (PANC-1): 1.1 µM
- IC (TGI) (PANC-1): 3.48 µM
- CC50 (PANC-1): 8.81 µM
- GI50 (HeLa-APL): 1.88 µM
- CC50 (HeLa-APL): 8.12 µM
- IC (TGI) (HeLa-APL): 3.9 µM
- GI50 (LoVo-Dox; [1]): 0.528 µM
- IC (TGI) (LoVo-Dox; Homo sapiens, LOVO-DOX; TGI=total growth inhibition (cytostatic effect); read-out: TGI LOVO-DOX): 1.6 µM
- CC50 (LoVo-Dox; [2]): 4.56 µM
- GI50 (IGROV-ET): 0.632 µM
- IC (TGI) (IGROV-ET): 2.04 µM
- CC50 (IGROV-ET): 5.98 µM
- GI50 (K-562): 1.64 µM
- IC (TGI) (K-562): 3.45 µM
- CC50 (K-562): 7.27 µM
- GI50 (HT-29): 1.97 µM
- IC (TGI) (HT-29): 3.7 µM
- CC50 (HT-29): 6.98 µM
- CC50 (LoVo): 5.67 µM
- GI50 (LoVo): 1.13 µM
- IC (TGI) (LoVo): 2.53 µM
- GI50 (A-549): 1.7 µM
- IC (TGI) (A-549): 3.29 µM
- CC50 (A-549): 6.36 µM
- GI50 (SK-BR-3): 0.372 µM
- IC (TGI) (SK-BR-3): 1.15 µM
- CC50 (SK-BR-3): 4.11 µM
- GI50 (DU-145): 1.39 µM
- IC (TGI) (DU-145): 2.6 µM
- CC50 (DU-145): 4.86 µM
- CC50 (IGROV): 7.67 µM
- GI50 (IGROV): 0.899 µM
- IC (TGI) (IGROV): 2.63 µM
- GI50 (LNCaP): 1.37 µM
- IC (TGI) (LNCaP): 2.63 µM
- CC50 (LNCaP): 5.06 µM
- GI50 (SK-MEL-28): 1.62 µM
- IC (TGI) (SK-MEL-28): 3.04 µM
- CC50 (SK-MEL-28): 5.67 µM

Compound: COc1cc(-c2c3n(c4c(=O)oc5cc(OC(=O)[C@H](CO)NC(=O)OC(C)(C)C)c(OC)cc5c24)CCc2c-3cc(OC)c(OC)c2OC(=O)[C@H](CO)NC(=O)OC(C)(C)C)ccc1OC(=O)[C@H](CO)NC(=O)OC(C)(C)C [Compound 60]
- CC50 (HeLa): 6.13 µM
- IC (TGI) (HeLa): 2.51 µM
- GI50 (HeLa): 1.02 µM
- GI50 (PANC-1): 0.747 µM
- IC (TGI) (PANC-1): 4.4 µM
- CC50 (PANC-1): 9.15 µM
- GI50 (HeLa-APL): 3.49 µM
- CC50 (HeLa-APL): 9.15 µM
- IC (TGI) (HeLa-APL): 9.15 µM
- GI50 (LoVo-Dox; [1]): 2.82 µM
- CC50 (LoVo-Dox; [2]): 9.15 µM
- IC (TGI) (LoVo-Dox; Homo sapiens; LOVO-DOX; TGI=total growth inhibition (cytostatic effect); read-out: TGI LOVO-DOX): 9.15 µM
- GI50 (IGROV-ET): 2.56 µM
- IC (TGI) (IGROV-ET): 6.16 µM
- CC50 (IGROV-ET): 9.15 µM
- GI50 (K-562): 0.697 µM
- IC (TGI) (K-562): 2.19 µM
- CC50 (K-562): 6.87 µM
- GI50 (HT-29): 2.42 µM
- IC (TGI) (HT-29): 5.88 µM
- CC50 (HT-29): 9.15 µM
- CC50 (LoVo): 7.94 µM
- GI50 (LoVo): 1.61 µM
- IC (TGI) (LoVo): 3.58 µM
- GI50 (A-549): 1.62 µM
- IC (TGI) (A-549): 4.63 µM
- CC50 (A-549): 9.15 µM
- GI50 (SK-BR-3): 0.491 µM
- IC (TGI) (SK-BR-3): 1.64 µM
- CC50 (SK-BR-3): 8.58 µM
- GI50 (DU-145): 1.18 µM
- IC (TGI) (DU-145): 2.65 µM
- CC50 (DU-145): 5.97 µM
- CC50 (IGROV): 9.15 µM
- GI50 (IGROV): 0.682 µM
- IC (TGI) (IGROV): 3.29 µM
- GI50 (LNCaP): 0.55 µM
- IC (TGI) (LNCaP): 1.79 µM
- CC50 (LNCaP): 5.25 µM
- GI50 (SK-MEL-28): 1.17 µM
- IC (TGI) (SK-MEL-28): 4.14 µM
- CC50 (SK-MEL-28): 9.15 µM

From patent US7396837B2, “Antitumoral analogs of lamellarins” (Pharma Mar, S.A.U., priority 2002, dated 2008)
